# In patent US10653685B2, “Pharmaceutical compositions and methods for the treatment of hypoxia-related diseases” (priority 2015, dated 2020):
# Legend:
# rat primary heart cells [1] = assay: CK released by rat primary heart cells under hypoxia; format: cell-based; conditions: hypoxia 3 hours
# Protocol: (§1) Sprague Dawley rat hearts (1-2 days old) were sterilely removed and bathed three times in Ca^++ and Mg^++—free PBS to remove excess blood cells. The hearts were minced to small fragments and then agitated in a proteolytic enzyme-RDB solution (Life Science research, Inst., Nes Ziona, Israel) prepared from a fig tree extract as described previously (Brik et al., Basic Res. Cardiol. 85:237-246, 1990), Shneyvays et al., J Mol Cell Cardiol. 33:1249-1261, 2001). The RDB-solution was then diluted 1:200 in PBS at 25° C. for a few cycles of 10 min each. The supernatant suspension containing dissociated cells, to which medium containing 10% horse serum was added, was centrifuged at 500 g for 5 min. After centrifugation, the supernatant phase was discarded, and cells were re-suspended in Dulbecco's modified Eagle medium supplemented with 10% heat-inactivated horse serum and 0.5% chick embryo extract. Cell suspensions were diluted to 1×10^6 cells/ml, and […] samples were placed in 24 well plates (4 plates) collagen/gelatin coated plastic culture dishes. […] The day after, Cells were washed to remove dead cells, and growth medium was replaced, as well as every 2 days and before experiment initiation, this time with glucose-free PBS. The experiments were then performed in vitro on these cardiomyocyte cultures after 5 days following the day of procedure beginning. Right before Hypoxia experiments, cultures wells were incubated in a humidified atmosphere incubator of 5% CO2 and 95% air at 37° C. for 30 minute steady state.
# (§2) Approximately 3×10^5 cardiomyocytes/well from neonatal rat hearts were cultured with glucose-free PBS and exposed to hypoxia (oxygen and glucose deprivation) for 180 min. using a procedure essentially as described by O. Golan et al. (Biochemical pharmacology, 81 (2011), pp. 1219-1227)
# (§3) In brief, Hypoxia was performed in a closed chamber by replacement of air with 100% Argon. During hypoxia Oxygen levels in the N2 atmosphere was below 1%. And after 180 min. of hypoxia, the pO2 in the PBS was <0.4 Torr. Hypoxic stress injury was determined based on the activity of lactate dehydrogenase (LDH) and creatine kinase (CK) released from the cells, at the end of 3 hr. hypoxic phase, and consequently after additional 2 hr. of reoxygenation.
# For both LDH and CK measurements, 25 μL aliquots of each well incubated for 180 min under hypoxia, were transfer to clean 24 wells trays, which were placed within the automatic spectrophotometer and the product of the enzyme activity was measured through a wavelength of 340 nm at 30° C., under shaking. […]
# Creatine Kinase (CK) activity was determined within the cardiac cell medium (PBS) using CK-NAC Reagent (Creatine kinase, activated by N-acetyl cysteine) from Thermo Fisher Scientific Inc. Middletown, Va. […]
# rat primary heart cells [2] = assay: LDH released by rat primary heart cells under hypoxia; format: cell-based; conditions: hypoxia 3 hours
# Protocol: as §1, §2, §3
# For both LDH and CK measurements, 25 μL aliquots of each well incubated for 180 min under hypoxia, were transfer to clean 24 wells trays, which were placed within the automatic spectrophotometer and the product of the enzyme activity was measured through a wavelength of 340 nm at 30° C., under shaking. Results were expressed relatively to the control.
# Lactate dehydrogenase (LDH) activity was determined within the cardiac cell medium (PBS) using LDH-L kit (Thermo Trace, Melbourne, Australia). […]
# heart cells = conditions: maximum protection, WO 2013/003445; cited from earlier work
structure (smiles),measurement,setting,value
"c1ccc(CN(CCN(Cc2ccccn2)Cc2ccccn2)Cc2ccccn2)nc1 [TPEN, N,N,N′,N′-tetrakis-(2-pyridylmethyl)-ethylenediamine]",CK Reduction,"rat primary heart cells [1]; sodium alginate 0, TPEN 0.3 μM",46.6%
same,Mean (CK released from rat heart cells),"rat primary heart cells [1]; sodium alginate 0, TPEN 0.3 μM",0.0411
same,CK Reduction,"rat primary heart cells [1]; sodium alginate 0, TPEN 1 μM",14.3%
same,Mean (CK released from rat heart cells),"rat primary heart cells [1]; sodium alginate 0, TPEN 1 μM",0.0643
same,LDH Reduction,"rat primary heart cells [2]; sodium alginate 0, TPEN 0.3 μM",39.5%
same,Mean (LDH released from rat heart cells),"rat primary heart cells [2]; sodium alginate 0, TPEN 0.3 μM",0.0409
same,LDH Reduction,"rat primary heart cells [2]; sodium alginate 0, TPEN 1 μM",10.0%
same,Mean (LDH released from rat heart cells),"rat primary heart cells [2]; sodium alginate 0, TPEN 1 μM",0.0647
same,protection from hypoxia stress injury,heart cells,≤ 70%
